Results on 15 compounds are retold here after patent publication US11813306B2, “Cyclic tetramer compounds as proprotein convertase subtilisin/kexin type 9 (PCSK9) inhibitors for the treatment of metabolic disorders” (NOVARTIS AG, priority 2018, dated 2023).

This experiment concerns the target human PCSK9 (Homo sapiens, UniProt Q8NBP7). Kind of experiment: PCSK9 ligand binding assay (TR-FRET): interference with binding of human PCSK9 to human LDLR. The following applies: for IC50: Human PCSK9 Alexa Fluor 647 / Human LDLR extracellular domain-Europium Kryptate; for Max % inhibition: efficacy (Amax), 100% = 1 uM unlabeled human PCSK9, 0% = DMSO. The method in brief:
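Read-out was TR-FRET ratio (665 nm over 615 nm, 330 nm excitation) between Alexa Fluor 647-human PCSK9 (16 nM added) and Europium Kryptate-human LDLR ectodomain (4 nM added). Compound and PCSK9 were mixed 30 min before LDLR, then incubated 2 h. Inhibition was normalised to DMSO and unlabelled-PCSK9 controls, giving IC50 and Amax.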
For orientation: In TR-FRET formats the signal depends on donor and acceptor labels being close together.

human PCSK9, sequence (Q8NBP7 153-692): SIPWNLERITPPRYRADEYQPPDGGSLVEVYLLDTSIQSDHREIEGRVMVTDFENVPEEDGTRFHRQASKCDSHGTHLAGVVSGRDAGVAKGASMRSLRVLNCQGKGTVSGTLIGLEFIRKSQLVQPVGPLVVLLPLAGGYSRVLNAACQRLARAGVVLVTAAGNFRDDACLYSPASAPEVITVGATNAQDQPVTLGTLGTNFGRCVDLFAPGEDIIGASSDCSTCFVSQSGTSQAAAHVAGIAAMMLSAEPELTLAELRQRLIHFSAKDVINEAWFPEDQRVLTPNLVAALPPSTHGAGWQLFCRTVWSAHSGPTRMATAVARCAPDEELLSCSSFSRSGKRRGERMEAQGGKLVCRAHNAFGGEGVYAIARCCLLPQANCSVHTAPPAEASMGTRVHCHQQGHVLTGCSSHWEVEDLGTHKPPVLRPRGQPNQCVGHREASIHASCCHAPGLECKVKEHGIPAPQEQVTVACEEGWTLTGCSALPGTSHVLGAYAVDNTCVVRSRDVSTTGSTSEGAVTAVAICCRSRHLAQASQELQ
human PCSK9, sequence (Q8NBP7 31-152 partner limits assumed): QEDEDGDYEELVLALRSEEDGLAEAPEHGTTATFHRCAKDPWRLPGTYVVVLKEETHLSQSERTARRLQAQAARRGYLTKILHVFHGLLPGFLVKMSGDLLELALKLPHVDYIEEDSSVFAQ

In general, IC50 refers to the midpoint of a concentration-inhibition curve. As to `COC[C@H]1NC(=O)[C@H](C)N(Cc2ccc(Cl)cc2Oc2ccc(-c3cnc(CN(C)C)n3C)nc2)C(=O)C[C@@H](Cc2ccccc2)C(=O)N2CCC[C@@](Cc3ccc(Cl)cc3)(C2)NC1=O` [Compound 122, (3R, 7S, 10R, 13R)-3-benzyl-6-(4-chloro-2-((6-(2-((dimethylamino)methyl)-1-methyl-1H-imidazol-5-yl)pyridin-3-yl)oxy)benzyl)-13-(4-chlorobenzyl)-10-(methoxymethyl)-7-methyl-1,6,9,12-tetraazabicyclo[11.3.1]heptadecane-2,5,8,11-tetraone], the IC50 is 94.3 nM and the Max % inhibition is 96.9%.

As to `C[C@H]1C(=O)N[C@@H](CO)C(=O)N[C@@]2(Cc3ccc(Cl)cc3)CCCN(C2)C(=O)[C@H]([C@@H]2CCc3ccccc32)CC(=O)N1Cc1ccc(Oc2ccc(-c3cnc(CN(C)C)n3C)cc2)cc1F` [Compound 123], the IC50 came to 346 nM and the Max % inhibition is given as 84.4%.

As for `CC[C@@H]1CC(=O)N(Cc2ccc(Cl)cc2Oc2ccc(-c3cnc(CN4CCCC4)n3C)cc2)[C@@H](C)C(=O)N[C@@H](CO)C(=O)N(C)[C@H](Cc2ccc(Cl)cc2)CNC1=O.Cl` [Compound 124, (2S, 5S, 8R, 12R)-1-(4-chloro-2-(4-(1-methyl-2-(pyrrolidin-1-ylmethyl)-1H-imidazol-5-yl)phenoxy)benzyl)-8-(4-chlorobenzyl)-12-ethyl-5-(hydroxymethyl)-2,7-dimethyl-1,4,7,10-tetraazacyclotetradecane-3,6,11,14-tetraone], the IC50 worked out at 102 nM and the Max % inhibition amounted to 96.8%.

Turning to `COC[C@@H]1NC(=O)[C@H](CCN2CCOCC2)N(Cc2ccc(Cl)cc2Oc2ccc(-c3cnc(CN(C)C)n3C)cc2)C(=O)C[C@@H]([C@H]2CCc3ccccc32)C(=O)N(C)C[C@@H](Cc2ccc(Cl)cc2)N(C)C1=O.Cl` [Compound 125, (2S, 5S, 8R, 12S)-1-(4-chloro-2-(4-(2-((dimethylamino)methyl)-1-methyl-1H-imidazol-5-yl)phenoxy)benzyl)-8-(4-chlorobenzyl)-12-((R)-2,3-dihydro-1H-inden-1-yl)-5-(methoxymethyl)-7,10-dimethyl-2-(2-morpholinoethyl)-1,4,7,10-tetraazacyclotetradecane-3,6,11,14-tetraone], the IC50 worked out at 103 nM and the Max % inhibition is given as 92.2%.

Regarding `C[C@H](NCc1ccc(Cl)cc1Oc1ccc(-c2cnc(CN(C)C)n2C)cc1)C(=O)N[C@H]1COC(=O)C[C@@H](Cc2ccccc2)C(=O)N2CCC[C@@](Cc3ccc(Cl)cc3)(C2)N(C)C1=O` [Compound 126, (2S)-N-((3R, 8S, 11R)-3-benzyl-11-(4-chlorobenzyl)-10-methyl-2,5,9-trioxo-6-oxa-1,10-diazabicyclo[9.3.1]pentadecan-8-yl)-2-((4-chloro-2-(4-(2-((dimethylamino)methyl)-1-methyl-1H-imidazol-5-yl)phenoxy)benzyl)amino)propanamide], the IC50 was determined as 612 nM and the Max % inhibition is 100.1%.

`COC[C@@H]1NC(=O)[C@H](CCCN2CCOCC2)N(Cc2ccc(Cl)cc2Oc2ccc(-c3cnc(CN(C)C)n3C)cc2)C(=O)C[C@@H]([C@H]2CCc3ccccc32)C(=O)N(C)C[C@@H](Cc2ccc(Cl)cc2)N(C)C1=O.Cl` [Compound 127, (2S, 5S, 8R, 12S)-1-(4-chloro-2-(4-(2-((dimethylamino)methyl)-1-methyl-1H-imidazol-5-yl)phenoxy)benzyl)-8-(4-chlorobenzyl)-12-((R)-2,3-dihydro-1H-inden-1-yl)-5-(methoxymethyl)-7,10-dimethyl-2-(3-morpholinopropyl)-1,4,7,10-tetraazacyclotetradecane-3,6,11,14-tetraone]: the IC50 was found to be 138 nM and the Max % inhibition was found to be 94.3%.

Turning to `CC[C@@H]1CC(=O)N(Cc2ccc(Cl)cc2Oc2ccc(-c3cnc(CN4CCCC4)n3C)cc2)[C@@H](C)C(=O)N[C@@H](CO)C(=O)N(C)[C@H](Cc2ccc(Cl)cc2)CN(C)C1=O.Cl` [Compound 128, (2S, 5S, 8R, 12R)-1-(4-chloro-2-(4-(1-methyl-2-(pyrrolidin-1-ylmethyl)-1H-imidazol-5-yl)phenoxy)benzyl)-8-(4-chlorobenzyl)-12-ethyl-5-(hydroxymethyl)-2,7,10-trimethyl-1,4,7, 10-tetraazacyclotetradecane-3,6,11,114-tetraone], the IC50 was determined as 250 nM and the Max % inhibition stood at 89.8%.

As to `CC(=O)C[C@@H]1NC(=O)[C@H](C)N(Cc2ccc(Cl)cc2Oc2ccc(-c3cnc(CN4CCCC4)n3C)cc2)C(=O)C[C@@H](Cc2ccccc2)C(=O)N(C)C[C@@H](Cc2ccc(Cl)cc2)N(C)C1=O.Cl` [Compound 129, (2S,5S,8R,12R)-12-benzyl-1-(4-chloro-2-(4-(1-methyl-2-(pyrrolidin-1-ylmethyl)-1H-imidazol-5-yl)phenoxy)benzyl)-8-(4-chlorobenzyl)-2,7,10-trimethyl-5-(2-oxopropyl)-1,4,7,10-tetraaza-cyclotetradecane-3,6,11,14-tetraone hydrochloride], the IC50 came out at 205 nM and the Max % inhibition turned out to be 87.3%.

For `C[C@H](NCc1ccc(Cl)cc1Oc1ccc(-c2cnc(CN(C)C)n2C)cc1)C(=O)N[C@H]1COC(=O)C[C@@H](Cc2ccccc2)C(=O)N(C)[C@@]2(Cc3ccc(Cl)cc3)CCCN(C2)C1=O` [Compound 130, (2S)-N-((3S, 8R, 11R)-8-benzyl-11-(4-chlorobenzyl)-10-methyl-2,6,9-trioxo-5-oxa-1,10-diazabicyclo[9.3.1]pentadecan-3-yl)-2-((4-chloro-2-(4-(2-((dimethylamino)methyl)-1-methyl-1H-imidazol-5-yl)phenoxy)benzyl)amino)propanamide], the IC50 turned out to be 879 nM and the Max % inhibition is 99.3%.

Turning to `COC[C@@H]1NC(=O)[C@H](CCCCN2CCOCC2)N(Cc2ccc(Cl)cc2Oc2ccc(-c3cnc(CN(C)C)n3C)cc2)C(=O)C[C@@H]([C@H]2CCc3ccccc32)C(=O)N(C)C[C@@H](Cc2ccc(Cl)cc2)N(C)C1=O.Cl` [Compound 131, (2S, 5S, 8R, 12S)-1-(4-chloro-2-(4-(2-((dimethylamino)methyl)-1-methyl-1H-imidazol-5-yl)phenoxy)benzyl)-8-(4-chlorobenzyl)-12-((R)-2,3-dihydro-1H-inden-1-yl)-5-(methoxymethyl)-7,10-dimethyl-2-(4-morpholinobutyl)-1,4,7,10-tetraazacyclotetradecane-3,6,11,14-tetraone], the IC50 was determined as 281 nM and the Max % inhibition stood at 91.9%.

With `COC[C@@H]1NC(=O)[C@H](CCC(=O)N2CCC2)N(Cc2ccc(Cl)cc2Oc2ccc(-c3cnc(CN4CCCC4)n3C)cc2)C(=O)C[C@@H]([C@H]2CC(C)(C)c3ccccc32)C(=O)N(C)C[C@@H](Cc2ccc(Cl)cc2)N(C)C1=O.Cl` [Compound 132, (2S,5S,8R,12S)-2-(3-(azetidin-1-yl)-3-oxopropyl)-1-(4-chloro-2-(4-(1-methyl-2-(pyrrolidin-1-ylmethyl)-1H-imidazol-5-yl)phenoxy)benzyl)-8-(4-chlorobenzyl)-12-((R)-3,3-dimethyl-2,3-dihydro-1H-inden-1-yl)-5-(methoxymethyl)-7,10-dimethyl-1,4,7,10-tetraazacyclotetradecane-3,6,11,14-tetraone hydrochloride], the IC50 was 231 nM and the Max % inhibition was determined as 100.3%.

On to `COC[C@@H]1NC(=O)[C@H](C)N(Cc2ccc(Cl)cc2Oc2ccc(-c3cnc(CN4CCCC4)n3C)cc2)C(=O)C[C@@H](N(C)C)C(=O)N(C)C[C@@H](Cc2ccc(Cl)cc2)N(C)C1=O.Cl` [Compound 134, (2S, 5S, 8R, 12R)-1-(4-chloro-2-(4-(1-methyl-2-(pyrrolidin-1-ylmethyl)-1H-imidazol-5-yl)phenoxy)benzyl)-8-(4-chlorobenzyl)-12-(dimethylamino)-5-(methoxymethyl)-2,7,10-trimethyl-1,4,7,10-tetraazacyclotetradecane-3,6,11,14-tetraone], for which the IC50 is 490 nM and the Max % inhibition amounted to 93.6%.

For the compound `C[C@H]1C(=O)N[C@@H](CC(=O)O)C(=O)N(C)[C@H](Cc2ccc(Cl)cc2)CN(C)C(=O)[C@H](Cc2ccccc2)CC(=O)N1Cc1ccc(Cl)cc1Oc1ccc(-c2cnc(CN3CCCC3)n2C)cc1.Cl` [Compound 135, 2-((2S, 5S, 8R, 12R)-12-benzyl-1-(4-chloro-2-(4-(1-methyl-2-(pyrrolidin-1-ylmethyl)-1H-imidazol-5-yl)phenoxy)benzyl)-8-(4-chlorobenzyl)-2,7,10-trimethyl-3,6,11,14-tetraoxo-1,4,7,10-tetraazacyclotetradecan-5-yl)acetic acid], the IC50 came out at 631 nM and the Max % inhibition amounted to 91.3%.

As to `COC[C@@H]1NC(=O)[C@H](C)N(Cc2c(F)cc(Cl)cc2Oc2ccc(-c3cnc(CNC(C)(C)C)n3C)cc2)C(=O)C[C@@H](CC(F)(F)F)C(=O)N2CCC[C@@](Cc3ccc(Cl)cc3)(C2)N(C)C1=O` [Compound 136, (3S,7S,10S,13R)-6-(2-(4-(2-((tert-Butylamino)methyl)-1-methyl-1H-imidazol-5-yl)phenoxy)-4-chloro-6-fluorobenzyl)-13-(4-chlorobenzyl)-10-(methoxymethyl)-7,12-dimethyl-3-(2,2,2-trifluoroethyl)-1,6,9,12-tetraazabicyclo[11.3.1]heptadecane-2,5,8,11-tetraone], the IC50 was 0.26 nM and the Max % inhibition is on record as 113.0%.

Turning to `COC[C@@H]1NC(=O)[C@H](C)N(Cc2c(F)cc(Cl)cc2Oc2ccc(-c3cnc(CN(C)C(C)(C)C)n3C)cc2)C(=O)C[C@@H](CC(F)(F)F)C(=O)N2CCC[C@@](Cc3ccc(Cl)cc3)(C2)NC1=O` [Compound 137, (3S,7S,10S,13R)-6-(2-(4-(2-((tert-Butyl(methyl)amino)methyl)-1-methyl-1H-imidazol-5-yl)phenoxy)-4-chloro-6-fluorobenzyl)-13-(4-chlorobenzyl)-10-(methoxymethyl)-7-methyl-3-(2,2,2-trifluoroethyl)-1,6,9,12-tetraazabicyclo[11.3.1]heptadecane-2,5,8,11-tetraone], the IC50 stood at 0.3 nM and the Max % inhibition amounted to 113.0%.
